From US11628169B2, “Therapeutic drug for motor complications in Parkinson's disease” (Sumitomo Pharma Co., Ltd., priority 2020, dated 2023)

Legend:
[1] = Plasma tandospirone concentration after observation of behavior in PD-LID rats; assay type: in vivo, rat; conditions: continuous subcutaneous infusion 60 mg/mL (mean 0.78 mg/kg/hour as citrate)
Procedure: 50 μL of rat plasma sample was fractionated into a polypropylene microtube. 50 μL of methanol (50 μL of standard solution for calibration curve sample) and 200 μL of internal standard solution (Bezafibrate methanol solution: 200 nmol/L, 200 μL of methanol for blank sample) are added and stirred for about 10 seconds with a mixer. This is centrifuged (4° C., 4500 rpm, 10 min), and then the supernatant is subjected to vacuum filtration using a filter (FastRemover MF 0.2 μm). 70 μL of aqueous 10 mmol/L ammonium acetate solution is added to 70 μL of the resulting filtrate and stirred for about 10 seconds with a mixer to prepare a measurement sample.
When evaluating a tape agent, the hair on the abdominal region of rats was shaved before the evaluation date. The tape agent of formulation 2 was applied to the abdominal regions of rats on the evaluation date at 60 cm^2/kg (37 mg/kg). After 4 hours from application, a levodopa containing solution was intraperitoneally administered to observe and evaluate the behavior. Individuals with 50% or more of the tape agent coming off during the test were excluded from analysis. […]
After 4 hours, a levodopa containing solution was administered to observe and evaluate the behavior (day 0 of implanting the pump). […] The behavior was also observed and evaluated on day 13 of implanting the pump.

6-OHDA-lesioned rats = experiment: Prevention/suppression of dyskinesia-like symptoms during repeated levodopa administration; assay type: in vivo, rat; conditions: vs solvent group; for increase in total AIMs score associated with repeated administration of levodopa: days 3, 5, 9, 15
Procedure: The prepared solution was used after injection into an ALZET® Osmotic Pump MODEL 2ML2 (4.53 μL/hour; DURECT).
6-OHDA-lesioned rats were assigned to each administration group using the number of apomorphine hydrochloride hemihydrate induced rotations and body weight as indicators. […] The osmotic pump implanted subcutaneously was retrieved after the observation and evaluation of behavior on day 15. The behavior was also observed and evaluated on the following day (day 16 of repeated administration of levodopa).
The test results were statistically analyzed by comparison with the solvent administration group using Steel test with the total AIMs score on day 16 of repeated levodopa administration as the parameter. * indicates p<0.05 and ** indicates p<0.01, meaning that there is a significant difference compared to the solvent administration group.

mean value of the plasma tandospirone concentrations (value converted in terms of free form) ([1]; day 0 of implanting the pump): 281 ng/mL
mean value of the plasma tandospirone concentrations (value converted in terms of free form) ([1]; day 13 of implanting the pump): 143 ng/mL
Substance: tandospirone citrate
increase in total AIMs score associated with repeated administration of levodopa (6-OHDA-lesioned rats; continuous subcutaneous infusion 30 mg/mL (mean of 0.41 mg/kg/hour)): suppressed the increase in total AIMs score
total AIMs score on the day after completion of administration (day 16) (6-OHDA-lesioned rats; continuous subcutaneous infusion 30 mg/mL or 60 mg/mL, pump retrieved day 15): significantly lower
increase in total AIMs score associated with repeated administration of levodopa (6-OHDA-lesioned rats; continuous subcutaneous infusion 60 mg/mL (mean of 0.83 mg/kg/hour)): suppressed the increase in total AIMs score
